Laboratory results reported in US20260285853A1, “COMPOUNDS AND METHODS FOR MODULATING SPLICING” (REMIX THERAPEUTICS INC., priority 2023, published 2026).
Read-outs that look alike come from different tables or passages of the source.

Legend:
Format in all cases: cell-based
[1] = test system: MYB mRNA; test: Splicing RT-qPCR assay (THP), Table 2A
[2] = test system: HTT mRNA; test: Splicing RT-qPCR assay (THP), Table 2A
[3] = test system: MYB mRNA; test: Gene panel canonical junction qPCR assay, decrease in CJ mRNA, Table 3
Procedure, shortened: (§1)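 A673 cells were plated, left to adhere for 24 h, then dosed; K562 cells were plated in 96- or 384-well format and dosed directly. Both were incubated 24 h at 37 °C with an 11-point 3-fold series (top 10 uM final). Canonical junction mRNA was then read by cDNA synthesis and qPCR.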

[4] = test system: HTT mRNA; test: as above
Procedure, shortened: as §1

[5] = test system: SH-SY5Y (human neuroblastoma) cells; test: Cell viability, Cell Titer Glo 2.0 assay; conditions: read-out: Viability SHSY5Y.3 GI50
Procedure, shortened: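 SH-SY5Y neuroblastoma cells are exposed to test compounds for 72 hours at 37 °C and 5% CO2, with final DMSO held at 0.1%. Cell viability is then measured with the CellTiter-Glo 2.0 assay.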

[6] = Table 2A (THP), AJ mRNA increase, read-out: MYB AJ (increase in alternative junction mRNA, AC50)
[7] = Table 2A (THP), CJ mRNA decrease, read-out: MYB CJ (decrease in canonical junction mRNA, IC50)
[8] = Table 2A (THP), AJ mRNA increase, read-out: HTT AJ (increase in alternative junction mRNA, AC50)
[9] = Table 2A (THP), CJ mRNA decrease, read-out: HTT CJ (decrease in canonical junction mRNA, IC50)
[10] = decrease in canonical junction (CJ) mRNA, gene panel qPCR, Table 3
[11] = Table 2A, THP, MYB alternative junction (AJ) mRNA, read-out: MYB AJ (AC50, increase in alternative junction mRNA)
[12] = Table 2A, THP, MYB canonical junction (CJ) mRNA, read-out: MYB CJ (IC50, decrease in canonical junction mRNA)
[13] = Table 2A, THP, HTT alternative junction (AJ) mRNA, read-out: HTT AJ (AC50, increase in alternative junction mRNA)
[14] = Table 2A, THP, HTT canonical junction (CJ) mRNA, read-out: HTT CJ (IC50, decrease in canonical junction mRNA)
[15] = decrease in CJ mRNA levels, canonical junction qPCR, gene panel

SMILES | AC50 [1, 6] [nM] | IC50 [1, 7] [nM] | AC50 [2, 8] [nM] | IC50 [2, 9] [nM] | IC50 [3, 10] [nM] | IC50 [4, 10] [nM] | GI50 [5] [nM] | AC50 [1, 11] [nM] | IC50 [1, 12] [nM] | AC50 [2, 13] [nM] | IC50 [2, 14] [nM] | IC50 [3, 15] [nM] | IC50 [4, 15] [nM]
CCNC1CCN(c2cc(F)c(C(=O)Nc3cn4ccncc4n3)c3nn(C)cc23)CC1 [Compound 381, 4-[4-(ethylamino)-1-piper-idyl]-6-fluoro-N-imidazo [1,2-a]-pyrazin-2-yl-2-methyl-indazole-7-carboxamide] | 1000 to 10000 | 1000 to 10000 | 1000 to 10000 | 1000 to 10000 | 1000 to 10000 | 1000 to 10000 | 1000 to 10000 | – | – | – | – | – | –
CNC1CN(c2ccc(C(=O)Nc3cn4cc(C)nc(CNS(C)(=O)=O)c4n3)c3nn(C)cc23)C1 [Compound 849] | – | – | – | – | – | – | 100 to 1000 | 100 to 1000 | 100 to 1000 | 100 to 1000 | 100 to 1000 | 100 to 1000 | 100 to 1000
COc1c(NC(=O)c2c(F)cc(N3CCC(NC4CC4)CC3)c3cn(C)nc23)ccn2nc(C)cc12 [Compound 447, 4-(4-(cyclopropylamino)piperidin-1-yl)-6-fluoro-N-(4-methoxy-2-methylpyrazolo-[1,5-a]pyridin-5-yl)-2-methyl-2H-indazole-7-carboxamide 2,2,2-trifluoroacetate] | > 10000 | 1000 to 10000 | > 10000 | > 10000 | 1000 to 10000 | > 10000 | 1000 to 10000 | – | – | – | – | – | –
CCNC1CCN(c2ccc(C(=O)Nc3cc(C(=O)NC)c4nc(C)cn4c3)c3nn(C)cc23)CC1 [Compound 319, 4-(4-(ethylamino)-piperidin-1-yl)-2-methyl-N-(2-methyl-8-(methylcarbamoyl)-imidazo[1,2-a]-pyridin-6-yl)-2H-indazole-7-carboxamide 2,2,2-trifluoroacetate] | > 10000 | > 10000 | > 10000 | > 10000 | > 10000 | > 10000 | > 10000 | – | – | – | – | – | –
COc1nc2nc(C)cn2cc1NC(=O)c1c(F)cc(N2CCC(NC3CC3)CC2)c2cn(C)nc12 [Compound 398, 4-[4-(cyclopropylamino)-1-piperidy1]-6-fluoro-N-(7-methoxy-2-methyl-imidazo-[1,2-a]pyrimidin-6-yl)-2-methyl-indazole-7-carboxamide] | < 100 | < 100 | 1000 to 10000 | 1000 to 10000 | < 100 | 1000 to 10000 | 100 to 1000 | – | – | – | – | – | –
CCNC1CCN(c2ccc(C(=O)Nc3cc(Oc4ccc(Cl)cc4)c4nc(C)cn4c3)c3nn(C)cc23)CC1 [Compound 325, N-[8-(4-chloro-phenoxy)-2-methylimidazo[1,2-a]-pyridin-6-yl]-4-[4-(ethylamino)-1-piperidyl]-2-methyl-indazole-7-carboxamide] | < 100 | 100 to 1000 | 1000 to 10000 | 1000 to 10000 | 100 to 1000 | 1000 to 10000 | 100 to 1000 | – | – | – | – | – | –
Cc1cn2cc(NC(=O)c3c(F)cc(N4CCC(NC5CCC5)CC4)c4cn(C)nc34)nc2c(C)n1 [Compound 349, 4-[4-(cyclobutylamino)-1-piperid-yl]-N-(6,8-dimethyl-imidazo [1,2-a]-pyrazin-2-yl)-6-fluoro-2-methyl-indazole-7-carbox-amide] | < 100 | < 100 | > 10000 | > 10000 | < 100 | > 10000 | 100 to 1000 | – | – | – | – | – | –
COc1cc2nn(C)cc2cc1NC(=O)c1ccc(N2CC[C@@H]3CNCC[C@@H]32)c2cn(C)nc12 [Compound 515] | 100 to 1000 | 100 to 1000 | 1000 to 10000 | > 10000 | 100 to 1000 | > 10000 | 1000 to 10000 | – | – | – | – | – | –
COc1nc2c(C(=O)Nc3cc4cn(C)nc4cc3OC)ccc(N3CCC(NC4CC4)CC3)c2o1 [Compound 681, 7-[4-(cyclopropylamino)-1-piperidyl]-2-methoxy-N-(6-methoxy-2-methyl-indazol-5-yl)-1,3-benzoxazole-4-carboxamide] | – | – | – | – | – | – | 100 to 1000 | < 100 | 100 to 1000 | 100 to 1000 | 100 to 1000 | 100 to 1000 | 100 to 1000
Cc1cc2cc(NC(=O)c3c(F)cc(N4CCC(NC5CC5)CC4)c4cn(C)nc34)oc2c(C)n1 [Compound 456, 4-[4-(cyclopropylamino)-1-piperidyl]-N-(5,7-dimethylfuro-[2,3-c]pyridin-2-yl)-6-fluoro-2-methyl-indazole-7-carboxamide] | < 100 | 100 to 1000 | > 10000 | > 10000 | 100 to 1000 | > 10000 | 1000 to 10000 | – | – | – | – | – | –
